# From paper PMC6156440, “A Class 1 Histone Deacetylase as Major Regulator of Secondary Metabolite Production in Aspergillus nidulans” (Frontiers in Microbiology, 2018)
# Biological target: T1, HosA (TAP-tagged HosA) (Aspergillus nidulans, UniProt Q5B6M4)
# T1 construct: gene ANIA_03806; TAP-tagged HosA expressed in A. nidulans hosA deletion strain under xylPp; IgG-Sepharose pull-down under native conditions, eluted by TEV protease (CBP part of tag kept); enriched fraction, endogenous complex partners not examined
# T1 sequence (Q5B6M4 1-482): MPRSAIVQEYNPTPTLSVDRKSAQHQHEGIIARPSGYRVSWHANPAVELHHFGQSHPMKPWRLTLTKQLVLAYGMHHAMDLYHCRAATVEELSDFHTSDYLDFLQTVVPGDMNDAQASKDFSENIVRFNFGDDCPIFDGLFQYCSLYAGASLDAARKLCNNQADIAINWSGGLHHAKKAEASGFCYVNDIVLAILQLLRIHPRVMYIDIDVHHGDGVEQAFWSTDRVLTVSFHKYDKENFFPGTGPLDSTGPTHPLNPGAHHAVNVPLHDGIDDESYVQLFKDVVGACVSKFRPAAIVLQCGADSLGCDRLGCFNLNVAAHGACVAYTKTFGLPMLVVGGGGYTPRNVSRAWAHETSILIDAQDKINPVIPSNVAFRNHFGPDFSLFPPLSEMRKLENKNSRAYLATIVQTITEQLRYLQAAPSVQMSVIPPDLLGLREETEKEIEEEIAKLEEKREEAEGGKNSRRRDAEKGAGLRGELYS
# Assay: fluorometric HDAC assay, labelled acetylated peptide substrate (EMD Millipore kit)
# Format: biochemical
# Settings: read-out: % inhibition at 100 nM
compound,measurement,value
"CC(/C=C/C(=O)NO)=C\[C@@H](C)C(=O)c1ccc(N(C)C)cc1 [TSA, trichostatin A]",inhibition at 0.1 µM,> 60%
